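The compound was tested at five concentrations on cells cultured in 96-well plates, with a 48-hour exposure period. GI50: concentration for 50% inhibition of growth. At the TGI there is no net growth.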
Columns and labels:
Experiment in all cases: growth of human tumour cells (NCI), 48 h
OVCAR-3 ovarian = tested on: OVCAR-3 ovarian
SF-539 CNS = tested on: SF-539 CNS
KM12 colon = tested on: KM12 colon
HCC-2998 colon = tested on: HCC-2998 colon
UACC-62 melanoma = tested on: UACC-62 melanoma
XF 498 CNS = tested on: XF 498 CNS
HT29 colon = tested on: HT29 colon
SF-295 CNS = tested on: SF-295 CNS
LOX IMVI melanoma = tested on: LOX IMVI melanoma
M19-MEL melanoma = tested on: M19-MEL melanoma
IGROV1 ovarian = tested on: IGROV1 ovarian
EKVX NSCLC = tested on: EKVX NSCLC
NCI-H460 lung = tested on: NCI-H460 lung
TK-10 renal = tested on: TK-10 renal
786-0 renal = tested on: 786-0 renal
RXF 393 renal = tested on: RXF 393 renal
M14 melanoma = tested on: M14 melanoma
SK-OV-3 ovarian = tested on: SK-OV-3 ovarian
OVCAR-8 ovarian = tested on: OVCAR-8 ovarian
OVCAR-4 ovarian = tested on: OVCAR-4 ovarian
SK-MEL-2 melanoma = tested on: SK-MEL-2 melanoma
HCT-15 colon = tested on: HCT-15 colon
HOP-18 NSCLC = tested on: HOP-18 NSCLC
HL-60(TB) leukemia = tested on: HL-60(TB) leukemia
SR leukemia = tested on: SR leukemia
CCRF-CEM leukemia = tested on: CCRF-CEM leukemia
SW-620 colon = tested on: SW-620 colon
OVCAR-5 ovarian = tested on: OVCAR-5 ovarian
UACC-257 melanoma = tested on: UACC-257 melanoma
SNB-78 CNS = tested on: SNB-78 CNS
MOLT-4 leukemia = tested on: MOLT-4 leukemia
SK-MEL-5 melanoma = tested on: SK-MEL-5 melanoma
A549 NSCLC = tested on: A549 NSCLC
U251 CNS = tested on: U251 CNS
SNB-19 CNS = tested on: SNB-19 CNS
HOP-62 NSCLC = tested on: HOP-62 NSCLC
SK-MEL-28 melanoma = tested on: SK-MEL-28 melanoma
SNB-75 CNS = tested on: SNB-75 CNS
COLO 205 colon = tested on: COLO 205 colon
RPMI-8226 leukemia = tested on: RPMI-8226 leukemia
SN12C renal = tested on: SN12C renal
HCT-116 colon = tested on: HCT-116 colon
ACHN renal = tested on: ACHN renal
HOP-92 NSCLC = tested on: HOP-92 NSCLC
NCI-H226 lung = tested on: NCI-H226 lung
DMS 273 small cell lung = tested on: DMS 273 small cell lung
CAKI-1 renal = tested on: CAKI-1 renal
UO-31 renal = tested on: UO-31 renal
K-562 leukemia = tested on: K-562 leukemia
LXFL 529 NSCLC = tested on: LXFL 529 NSCLC
NCI-H23 lung = tested on: NCI-H23 lung
KM20L2 colon = tested on: KM20L2 colon
DLD-1 colon = tested on: DLD-1 colon
DU-145 prostate = tested on: DU-145 prostate
NCI-H522 lung = tested on: NCI-H522 lung
MALME-3M melanoma = tested on: MALME-3M melanoma
SF-268 CNS = tested on: SF-268 CNS
A498 renal = tested on: A498 renal

## C=[CH][Sn]([CH]=C)([S]c1cccc2cccnc12)[S]c1cccc2cccnc12
OVCAR-3 ovarian
  GI50: 268 nM
  TGI: 810 nM
SF-539 CNS
  GI50: 321 nM
  TGI: 1010 nM
KM12 colon
  GI50: 176 nM
  TGI: 322 nM
HCC-2998 colon
  GI50: 212 nM
  TGI: 437 nM
UACC-62 melanoma
  GI50: 147 nM
  TGI: 287 nM
XF 498 CNS
  GI50: 283 nM
  TGI: 679 nM
HT29 colon
  GI50: 226 nM
  TGI: 476 nM
SF-295 CNS
  GI50: 438 nM
  TGI: 1830 nM
LOX IMVI melanoma
  GI50: 172 nM
  TGI: 310 nM
M19-MEL melanoma
  GI50: 194 nM
  TGI: 372 nM
IGROV1 ovarian
  GI50: 273 nM
  TGI: 726 nM
EKVX NSCLC
  GI50: 678 nM
  TGI: 1970 nM
NCI-H460 lung
  GI50: 201 nM
  TGI: 417 nM
TK-10 renal
  GI50: 458 nM
  TGI: 1460 nM
786-0 renal
  GI50: 216 nM
  TGI: 452 nM
RXF 393 renal
  GI50: 255 nM
  TGI: 678 nM
M14 melanoma
  GI50: 210 nM
  TGI: 404 nM
SK-OV-3 ovarian
  GI50: 436 nM
  TGI: 1550 nM
OVCAR-8 ovarian
  GI50: 313 nM
  TGI: 1000 nM
OVCAR-4 ovarian
  GI50: 204 nM
  TGI: 553 nM
SK-MEL-2 melanoma
  GI50: 222 nM
  TGI: 490 nM
HCT-15 colon
  GI50: 237 nM
  TGI: 648 nM
HOP-18 NSCLC
  GI50: 1660 nM
  TGI: 3020 nM
HL-60(TB) leukemia
  GI50: 268 nM
  TGI: 611 nM
SR leukemia
  GI50: 216 nM
  TGI: 687 nM
CCRF-CEM leukemia
  GI50: 76.7 nM
  TGI: 641 nM
SW-620 colon
  GI50: 156 nM
  TGI: 299 nM
OVCAR-5 ovarian
  GI50: 237 nM
  TGI: 745 nM
UACC-257 melanoma
  GI50: 212 nM
  TGI: 494 nM
SNB-78 CNS
  GI50: 145 nM
  TGI: 396 nM
MOLT-4 leukemia
  GI50: 287 nM
  TGI: 967 nM
SK-MEL-5 melanoma
  GI50: 203 nM
  TGI: 389 nM
A549 NSCLC
  GI50: 343 nM
  TGI: 1120 nM
U251 CNS
  GI50: 191 nM
  TGI: 380 nM
SNB-19 CNS
  GI50: 794 nM
  TGI: 2040 nM
HOP-62 NSCLC
  GI50: 1450 nM
  TGI: 3490 nM
SK-MEL-28 melanoma
  GI50: 138 nM
  TGI: 321 nM
SNB-75 CNS
  GI50: 562 nM
  TGI: 2370 nM
COLO 205 colon
  GI50: 70.2 nM
  TGI: 254 nM
RPMI-8226 leukemia
  GI50: 248 nM
  TGI: 692 nM
SN12C renal
  GI50: 442 nM
  TGI: 1600 nM
HCT-116 colon
  GI50: 165 nM
  TGI: 318 nM
ACHN renal
  GI50: 206 nM
  TGI: 507 nM
HOP-92 NSCLC
  GI50: 1590 nM
  TGI: 3070 nM
NCI-H226 lung
  GI50: 280 nM
  TGI: 1150 nM
DMS 273 small cell lung
  GI50: 216 nM
  TGI: 486 nM
CAKI-1 renal
  GI50: 366 nM
  TGI: 1580 nM
UO-31 renal
  GI50: 181 nM
  TGI: 358 nM
K-562 leukemia
  GI50: 234 nM
  TGI: 621 nM
LXFL 529 NSCLC
  GI50: 236 nM
  TGI: 649 nM
NCI-H23 lung
  GI50: 169 nM
  TGI: 388 nM
KM20L2 colon
  GI50: 211 nM
  TGI: 449 nM
DLD-1 colon
  GI50: 244 nM
  TGI: 722 nM

## CC(=O)N/C=C/c1cc(O)ccc1O
OVCAR-3 ovarian
  TGI: 29800 nM
SF-539 CNS
  TGI: > 66500 nM
DU-145 prostate
  TGI: > 100000 nM
KM12 colon
  TGI: > 100000 nM
HCC-2998 colon
  TGI: > 76200 nM
UACC-62 melanoma
  TGI: 47100 nM
XF 498 CNS
  TGI: 32300 nM
HT29 colon
  TGI: 48600 nM
SF-295 CNS
  TGI: 48100 nM
LOX IMVI melanoma
  TGI: 45600 nM
NCI-H522 lung
  TGI: 7190 nM
M19-MEL melanoma
  TGI: 46700 nM
IGROV1 ovarian
  TGI: > 68100 nM
EKVX NSCLC
  TGI: > 73600 nM
NCI-H460 lung
  TGI: > 74600 nM
TK-10 renal
  TGI: 54500 nM
786-0 renal
  TGI: 48100 nM
RXF 393 renal
  TGI: 49300 nM
M14 melanoma
  TGI: 48200 nM
SK-OV-3 ovarian
  TGI: > 70600 nM
OVCAR-8 ovarian
  TGI: > 85900 nM
OVCAR-4 ovarian
  TGI: 47900 nM
SK-MEL-2 melanoma
  TGI: 55100 nM
HCT-15 colon
  TGI: > 72900 nM
MALME-3M melanoma
  TGI: > 60600 nM
HOP-18 NSCLC
  TGI: 35200 nM
HL-60(TB) leukemia
  TGI: 54000 nM
SR leukemia
  TGI: 70500 nM
CCRF-CEM leukemia
  TGI: 75300 nM
SW-620 colon
  TGI: 35400 nM
OVCAR-5 ovarian
  TGI: 38100 nM
UACC-257 melanoma
  TGI: 47900 nM
SNB-78 CNS
  TGI: > 71800 nM
MOLT-4 leukemia
  TGI: 37100 nM
SK-MEL-5 melanoma
  TGI: > 67500 nM
A549 NSCLC
  TGI: > 76400 nM
SF-268 CNS
  TGI: 49800 nM
U251 CNS
  TGI: > 68600 nM
SNB-19 CNS
  TGI: > 72400 nM
HOP-62 NSCLC
  TGI: > 55200 nM
SK-MEL-28 melanoma
  TGI: 48600 nM
SNB-75 CNS
  TGI: > 81900 nM
COLO 205 colon
  TGI: 45800 nM
RPMI-8226 leukemia
  TGI: > 89900 nM
SN12C renal
  TGI: 46900 nM
HCT-116 colon
  TGI: 47400 nM
ACHN renal
  TGI: 37400 nM
HOP-92 NSCLC
  TGI: 36800 nM
NCI-H226 lung
  TGI: > 77400 nM
A498 renal
  TGI: 98100 nM
DMS 273 small cell lung
  TGI: > 100000 nM
CAKI-1 renal
  TGI: 41700 nM
UO-31 renal
  TGI: 46200 nM
K-562 leukemia
  TGI: > 91700 nM
LXFL 529 NSCLC
  TGI: 29000 nM
NCI-H23 lung
  TGI: 56100 nM
KM20L2 colon
  TGI: > 67700 nM
DLD-1 colon
  TGI: 48200 nM

— PubChem BioAssay (NCI)
